From patent US20240287076A1, “COMPOUNDS FOR TARGETING DEGRADATION OF BRUTON'S TYROSINE KINASE” (BIOGEN MA INC., priority 2021, published 2024)

target: T1, BTK (Homo sapiens, UniProt Q06187); test: BTK degradation assay using the HiBiT Method (Nano-Glo HiBiT Lytic Assay, GM01501.3 cells); assay type: cell-based; conditions: HiBiT Degradation on GM01501.3 BTK @ 6 hours
T1 construct: The GM01501.3 cell line endogenously expresses BTK with a HiBiT fusion tag via CRISPR knock-in at its C-terminal region; endogenous in cells; host or cells: GM01501.3 (GM01501 cells engineered by CRISPR knock-in of HiBiT at the BTK locus)
Procedure, shortened: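 CRISPR knock-in GM01501.3 cells expressing endogenous BTK with C-terminal HiBiT tag, treated 6 h at 37 °C with compounds, 11-point half-log titration from 10 μM top, duplicates. Remaining BTK quantified by Nano-Glo HiBiT lytic luminescence versus DMSO controls; DC50 reported.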

T1 sequence (Q06187 whole entry, the tested form may be a part): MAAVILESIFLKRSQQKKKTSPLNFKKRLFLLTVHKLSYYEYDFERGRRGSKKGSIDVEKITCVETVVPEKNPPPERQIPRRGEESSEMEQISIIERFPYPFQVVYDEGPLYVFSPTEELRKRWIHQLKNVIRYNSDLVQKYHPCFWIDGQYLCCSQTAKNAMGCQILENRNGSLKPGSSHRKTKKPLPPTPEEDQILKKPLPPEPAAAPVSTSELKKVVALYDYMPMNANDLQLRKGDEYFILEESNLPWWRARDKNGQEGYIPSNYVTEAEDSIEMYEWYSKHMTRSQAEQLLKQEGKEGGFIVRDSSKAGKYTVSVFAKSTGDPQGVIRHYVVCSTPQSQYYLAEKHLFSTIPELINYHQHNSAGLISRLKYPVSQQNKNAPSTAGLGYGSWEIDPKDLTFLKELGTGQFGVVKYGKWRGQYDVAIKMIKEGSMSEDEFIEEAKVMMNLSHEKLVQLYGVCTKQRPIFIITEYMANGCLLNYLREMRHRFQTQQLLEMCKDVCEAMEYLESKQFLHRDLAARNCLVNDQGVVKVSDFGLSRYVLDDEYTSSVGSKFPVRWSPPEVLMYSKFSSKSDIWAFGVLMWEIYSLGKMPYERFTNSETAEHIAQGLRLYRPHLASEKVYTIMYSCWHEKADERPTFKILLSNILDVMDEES

DC50, < 100 nM:
Cc1cc(-c2ccnn3cc(CCN4CCC(c5ccc(NC6CCC(=O)NC6=O)cc5)CC4)cc23)ccc1CNC(=O)c1noc(C(C)(C)C)n1 (centres unmarked) [Example 155, 5-tert-butyl-N-[[4-[6-[2-[4-[4-[(2,6-dioxo-3-piperidyl)amino]phenyl]-1-piperidyl]ethyl]pyrrolo[1,2-b]pyridazin-4-yl]-2-methyl-phenyl]methyl]-1,2,4-oxadiazole-3-carboxamide]
CC(C)(C)c1nc(C(=O)NCc2ccc(-c3ncnn4cc(CCCCN5CCC(c6ccc(C7(C)CCC(=O)NC7=O)cc6)CC5)cc34)cc2F)no1 (single isomer, unassigned) [Example 141, 5-tert-butyl-N-[[2-fluoro-4-[6-[4-[4-[4-(3-methyl-2,6-dioxo-3-piperidyl)phenyl]-1-piperidyl]butyl]pyrrolo[2,1-f][1,2,4]triazin-4-yl]phenyl]methyl]-1,2,4-oxadiazole-3-carboxamide]
Cc1cc(-c2ncnn3cc(-c4ccc(CN5CCC(c6ccc(NC7CCC(=O)NC7=O)cc6)CC5)cc4C)cc23)ccc1CNC(=O)c1noc(C(C)(C)C)n1 (centres unmarked) [Example 17, 5-tert-butyl-N-[[4-[6-[4-[[4-[4-[(2,6-dioxo-3-piperidyl)amino]phenyl]-1-piperidyl]methyl]-2-methyl-phenyl]pyrrolo[2,1-f][1,2,4]triazin-4-yl]-2-methyl-phenyl]methyl]-1,2,4-oxadiazole-3-carboxamide]
Cc1cc(-c2ncnn3cc(-c4ccc(CN5CCC(c6ccc7c(N8CCC(=O)NC8=O)nn(C)c7c6)CC5)cc4F)cc23)ccc1CNC(=O)c1noc(C(C)(C)C)n1 [Example 246, 5-(tert-butyl)-N-(4-(6-(4-((4-(3-(2,4-dioxotetrahydropyrimidin-1(2H)-yl)-1-methyl-1H-indazol-6-yl)piperidin-1-yl)methyl)-2-fluorophenyl)pyrrolo[2,1-f][1,2,4]triazin-4-yl)-2-methylbenzyl)-1,2,4-oxadiazole-3-carboxamide]
Cc1cc(-c2ncnn3cc(CCN4CCC(c5ccn6c(N7CCC(=O)NC7=O)cnc6c5)CC4)cc23)ccc1CNC(=O)c1noc(C(C)(C)C)n1 [Example 269, 5-(tert-butyl)-N-(4-(6-(2-(4-(3-(2,4-dioxotetrahydropyrimidin-1(2H)-yl)imidazo[1,2-a]pyridin-7-yl)piperidin-1-yl)ethyl)pyrrolo[2,1-f][1,2,4]triazin-4-yl)-2-methylbenzyl)-1,2,4-oxadiazole-3-carboxamide]
Cc1cc(-c2ncnn3cc(CCN4CCC(c5ccc6c(N7CCC(=O)NC7=O)nn(C)c6c5)CC4)cc23)ccc1CNC(=O)c1cn(C(C)(C)C)nn1 [Example 271]
Cn1nc(N2CCC(=O)NC2=O)c2ccc(C3CCN(CCCOc4cc5c(-c6ccc7c(c6)OCCCC7NC(=O)c6noc(C(C)(C)C)n6)ncnn5c4)CC3)cc21 (centres unmarked) [Example 294, 5-(tert-butyl)-N-(8-(6-(3-(4-(3-(2,4-dioxotetrahydropyrimidin-1(2H)-yl)-1-methyl-1H-indazol-6-yl)piperidin-1-yl)propoxy)pyrrolo[2,1-f] [1,2,4]triazin-4-yl)-2,3,4,5-tetrahydrobenzo[b]oxepin-5-yl)-1,2,4-oxadiazole-3-carboxamide]
CC(C)(C)c1nc(C(=O)NCc2ccc(-c3ncnn4cc(-c5ccc(CN6CCC(Cc7ccc(OC8CCC(=O)NC8=O)cc7)C6)cn5)cc34)cc2F)no1 (centres unmarked) [Example 237, 5-(tert-butyl)-N-(4-(6-(5-((3-(4-((2,6-dioxopiperidin-3-yl)oxy)benzyl)pyrrolidin-1-yl)methyl)pyridin-2-yl)pyrrolo[2,1-f][1,2,4]triazin-4-yl)-2-fluorobenzyl)-1,2,4-oxadiazole-3-carboxamide]
